Where two headings read alike, the source gives them in different places. Numbered stars: 1 amine (or outer) side, 2 acyl side, 3 side chain; on linkers, the order of the positions; unused ones are H or OH. Square brackets hold non-standard residues; d marks the D form. Peptide text beside a SMILES is read from it. * marks the point of attachment. Heptanoyl(3-oxo-2,2,4S,6-Me) = CC(C)C[C@H](C)C(=O)C(C)(C)C(=O)*; NH((S)-1-NMe2-3-Me-but-2-yl) = CC(C)[C@@H](CN(C)C)N*; Ile(3R-OH) = CC[C@@](C)(O)[C@H](N)C(=O)O; dVal(3-OH) = CC(C)(O)[C@@H](N)C(=O)O; d(aIle) = CC[C@H](C)[C@@H](N)C(=O)O; Val(3-OH) = CC(C)(O)[C@H](N)C(=O)O; X1 = CCC(CC)=C(N[*:1])C(=O)[*:2]; ΔVal = CC(C)=C(N)C(=O)O
Key:
[1] = tested on: lung fibroblast MRC5 cell line; test: cells; settings: read-out: Aver IC50, MRC5
Method: (§1) The antiproliferative activity profiles of 1a, its full-length analogs 2a and 2b, and its partial structures (23, 24, 26, and 30) were determined by in vitro screening in 72 hours MTS cell proliferation assays against a panel of 18 different human cancer cell lines. […] The three peptides were also evaluated for their antiproliferative activity against the lung fibroblast MRC5 cell line.
(§2) Cells (40 µ L) are added into individual wells of a 384-well black/clear bottom plate on day zero at concentrations enabling continuous log growth over the course of the assay. On day one, compounds (or DMSO) are transferred using an ATS-liquid handler (100 nL per well) to individual wells containing cells and the cells are treated for 72 hours (37 °C, 5% CO 2) prior to measuring proliferation using MTS reagent following manufacturer’s instructions. Net OD values are determined by subtracting the average OD values of cells (measured on day 1, T = 0) from average total OD value of cells (measured on day 4, T = 72h). IC 50 values are calculated using proprietary software (IC 50 values normalized against all compounds). Results represent n>2 independent studies (in duplicate).
(§3) Table S1. Antiproliferative Data of Compounds 1a, 2a, 2b, 23, 24, 26, and 30.
(§4) Table S2. Human Cell Line Descriptions.
(§5) Human Cell Line* Description
(§6) *All cells were obtained from ATCC and are authenticated

THP1 = test: cells; settings: read-out: Aver IC50, THP1
Method: as §1, §2, §3, §4, §5, §6

COLO678 = test: cells; settings: read-out: Aver IC50, COLO678
Method: as §1, §2, §3, §4, §5, §6

CALU6 = test: cells; settings: read-out: Aver IC50, CALU6
Method: as §1, §2, §3, §4, §5, §6

OVCAR3 = test: cells; settings: read-out: Aver IC50, OVCAR3
Method: as §1, §2, §3, §4, §5, §6

HCT116 = test: cells; settings: read-out: Aver IC50, HCT116
Method: as §1, §2, §3, §4, §5, §6

RAMOS = test: cells; settings: read-out: Aver IC50, RAMOS
Method: as §1, §2, §3, §4, §5, §6

A549 = test: cells; settings: read-out: Aver IC50, A549
Method: as §1, §2, §3, §4, §5, §6

HT29 = test: cells; settings: read-out: Aver IC50, HT29
Method: as §1, §2, §3, §4, §5, §6

MV411 = test: cells; settings: read-out: Aver IC50, MV411
Method: as §1, §2, §3, §4, §5, §6

A375 = test: cells; settings: read-out: Aver IC50, A375
Method: as §1, §2, §3, §4, §5, §6

HL60 = test: cells; settings: read-out: Aver IC50, HL60
Method: as §1, §2, §3, §4, §5, §6

NCIH1048 = test: cells; settings: read-out: Aver IC50, NCIH1048
Method: as §1, §2, §3, §4, §5, §6

SNUC1 = test: cells; settings: read-out: Aver IC50, SNUC1
Method: as §1, §2, §3, §4, §5, §6

U937 = test: cells; settings: read-out: Aver IC50, U937
Method: as §1, §2, §3, §4, §5, §6

JURKAT = test: cells; settings: read-out: Aver IC50, JURKAT
Method: as §1, §2, §3, §4, §5, §6

BXPC3 = test: cells; settings: read-out: Aver IC50, BXPC3
Method: as §1, §2, §3, §4, §5, §6

PANC1005 = test: cells; settings: read-out: Aver IC50, PANC1005
Method: as §1, §2, §3, §4, §5, §6

MCF7 = settings: read-out: Aver IC50, MCF7; MCF7 (Breast Carcinoma); MTS, 72 hours, 37 °C, 5% CO2, 384-well; n>2 independent studies (in duplicate)
Method: as §1, §2, §3, §4, §5, §6

[2] = MRC5 (Lung Fibroblast, noncancerous), MTS, 72 hours, 37 °C, 5% CO2, 384-well, n>2 independent studies (in duplicate)
[3] = THP1 (Acute Monocytic Leukemia), MTS, 72 hours, 37 °C, 5% CO2, 384-well, n>2 independent studies (in duplicate)
[4] = COLO678 (Colon Carcinoma), MTS, 72 hours, 37 °C, 5% CO2, 384-well, n>2 independent studies (in duplicate)
[5] = CALU6 (Lung - Adenocarcinoma), MTS, 72 hours, 37 °C, 5% CO2, 384-well, n>2 independent studies (in duplicate)
[6] = OVCAR3 (Ovary - Adenocarcinoma), MTS, 72 hours, 37 °C, 5% CO2, 384-well, n>2 independent studies (in duplicate)
[7] = HCT116 (Colon Carcinoma), MTS, 72 hours, 37 °C, 5% CO2, 384-well, n>2 independent studies (in duplicate)
[8] = RAMOS (Burkitt's lymphoma), MTS, 72 hours, 37 °C, 5% CO2, 384-well, n>2 independent studies (in duplicate)
[9] = A549 (Lung - NSCLC), MTS, 72 hours, 37 °C, 5% CO2, 384-well, n>2 independent studies (in duplicate)
[10] = HT29 (Colon Carcinoma), MTS, 72 hours, 37 °C, 5% CO2, 384-well, n>2 independent studies (in duplicate)
[11] = MV411 (Acute Myeloid Leukemia), MTS, 72 hours, 37 °C, 5% CO2, 384-well, n>2 independent studies (in duplicate)
[12] = A375 (Malignant Melanoma), MTS, 72 hours, 37 °C, 5% CO2, 384-well, n>2 independent studies (in duplicate)
[13] = HL60 (Leukema - Promyelocytic), MTS, 72 hours, 37 °C, 5% CO2, 384-well, n>2 independent studies (in duplicate)
[14] = NCIH1048 (Lung - SCLC), MTS, 72 hours, 37 °C, 5% CO2, 384-well, n>2 independent studies (in duplicate)
[15] = SNUC1 (Colon Carcinoma), MTS, 72 hours, 37 °C, 5% CO2, 384-well, n>2 independent studies (in duplicate)
[16] = U937 (Pro-monocytic, Human Myeloid Leukemia), MTS, 72 hours, 37 °C, 5% CO2, 384-well, n>2 independent studies (in duplicate)
[17] = JURKAT (acute T-cell leukemia), MTS, 72 hours, 37 °C, 5% CO2, 384-well, n>2 independent studies (in duplicate)
[18] = BXPC3 (Pancreatic - Adenocarcinoma), MTS, 72 hours, 37 °C, 5% CO2, 384-well, n>2 independent studies (in duplicate)
[19] = PANC1005 (Pancreatic - Adenocarcinoma), MTS, 72 hours, 37 °C, 5% CO2, 384-well, n>2 independent studies (in duplicate)

| Compound | IC50 [1, 2] | IC50 (THP1; [3]) | IC50 (COLO678; [4]) | IC50 (CALU6; [5]) | IC50 (OVCAR3; [6]) | IC50 (HCT116; [7]) | IC50 (RAMOS; [8]) | IC50 (A549; [9]) | IC50 (HT29; [10]) | IC50 (MV411; [11]) | IC50 (A375; [12]) | IC50 (HL60; [13]) | IC50 (NCIH1048; [14]) | IC50 (SNUC1; [15]) | IC50 (U937; [16]) | IC50 (JURKAT; [17]) | IC50 (BXPC3; [18]) | IC50 (PANC1005; [19]) | also measured |
| --- | --- | --- | --- | --- | --- | --- | --- | --- | --- | --- | --- | --- | --- | --- | --- | --- | --- | --- | --- |
| CC[C@@]1(O)C(=O)OCc2c1cc1n(c2=O)Cc2cc3ccccc3nc2-1 [Camptothecin, reference compound] | – | – | – | – | – | – | – | – | – | – | – | – | – | – | – | – | – | – | IC50 ([1]; Homo sapiens, MRC5, 72 h): 52.5 nM; IC50 (THP1; Homo sapiens, THP-1, 72 h): 44.9 nM; IC50 (COLO678; Homo sapiens, COLO-678, 72 h): 126 nM; IC50 (CALU6; Homo sapiens, Calu-6, 72 h): 10.2 nM; IC50 (OVCAR3; Homo sapiens, OVCAR-3, 72 h): 53.4 nM; IC50 (HCT116; Homo sapiens, HCT-116, 72 h): 10.9 nM; IC50 (RAMOS; Homo sapiens, Ramos, 72 h): 9.7 nM; IC50 (A549; Homo sapiens, A549, 72 h): 27.7 nM; IC50 (HT29; Homo sapiens, HT-29, 72 h): 103 nM; IC50 (MV411; Homo sapiens, MV4-11, 72 h): 7.1 nM; IC50 (A375; Homo sapiens, A-375, 72 h): 5.9 nM; IC50 (HL60; Homo sapiens, HL-60, 72 h): 21 nM; IC50 (NCIH1048; Homo sapiens, NCI-H1048, 72 h): 9.7 nM; IC50 (SNUC1; Homo sapiens, SNU-C1, 72 h): 47.4 nM; IC50 (U937; Homo sapiens, U-937, 72 h): 19.7 nM; IC50 (JURKAT; Homo sapiens, Jurkat, 72 h): 7.3 nM; IC50 (BXPC3; Homo sapiens, BXPC-3, 72 h): 38.4 nM; IC50 (PANC1005; Homo sapiens, Panc1005, 72 h): 45.3 nM |
| CCC(CC)=C(NC(=O)CNC(=O)C(NC(=O)[C@@H](NC(=O)C(C)(C)C(=O)[C@@H](C)CC(C)C)[C@](C)(O)CC)=C(C)C)C(=O)N[C@@H](C(=O)N[C@@H](C(=O)N[C@@H](C(=O)N[C@H](C(=O)NC(C(=O)N[C@H](C)C(=O)N[C@@H](C(=O)N[C@H](C(=O)NC(C(=O)N[C@H](CN(C)C)C(C)C)=C(C)C)C(C)C)C(C)C)=C(C)C)C(C)(C)O)C(C)(C)O)[C@@H](C)CC)C(C)C [Compound 2b] ({Heptanoyl(3-oxo-2,2,4S,6-Me)}-[Ile(3R-OH)][ΔVal]G[X1][dV][d(aIle)][dVal(3-OH)][Val(3-OH)][ΔVal][dA][dV]V[ΔVal]-{NH((S)-1-NMe2-3-Me-but-2-yl)}) | 17500 nM | 9690 nM | 6500 nM | 1000 nM | 186 nM | 4260 nM | 1200 nM | 249 nM | 5250 nM | 48.8 nM | 254 nM | 465 nM | 2370 nM | 58.3 nM | 947 nM | 13400 nM | 9310 nM | 8810 nM | IC50 (MCF7): 13000 nM |
| CC(=O)N[C@@H](C(=O)N[C@H](C(=O)NC(C(=O)N[C@H](CN(C)C)C(C)C)=C(C)C)C(C)C)C(C)C [Compound 23] | > 25000 nM | > 25000 nM | > 25000 nM | > 25000 nM | > 25000 nM | > 25000 nM | > 25000 nM | > 25000 nM | > 25000 nM | > 25000 nM | > 25000 nM | > 25000 nM | > 25000 nM | > 25000 nM | > 25000 nM | > 25000 nM | > 25000 nM | > 25000 nM | – |

— paper PMC8848768, “Synthesis and evaluation of potent yaku'amide A analogs” (Chemical Science, 2022)
